Tests used:
[1] = pH 7.4 and 25° C.; cited from earlier work
[2] = calculated gallium concentration and precipitation in lung fluid after one AERx strip; design: species or system human
Source text: Thus, one would expect that there would be a depot-like effect in the lung in terms of the release of gallium from the solid state over time. This would result in a delayed absorption profile of gallium into the bloodstream, with a reduced CMAX and delayed TMAX. This would also reduce or eliminate side effects resulting from high systemic concentrations.

[3] = aqueous solubility of gallium as a function of pH; assay type: physicochemical
Source text: Gallium is a semi-metallic element in group 13 (IIIa) of the periodic table. Gallium is trivalent in aqueous solution (Ga^3+). The free hydrated ion Ga^3+hydrolyzes nearly completely at pH values close to neutral, readily forming highly insoluble amorphous Ga(OH)3. In addition to precipitating as hydroxides and oxyhydroxides , Ga will also form highly insoluble phosphates at pH values close to neutral. L R Bernstein (1998) provides a brief review of the solution chemistry of gallium. […] At low and high pH values, gallium has many orders of magnitude greater solubility. […] This difference in solubility can be exploited in an inhalation product by formulating gallium or its salts (e.g., gallium nitrate) at a very low or very high pH.

[4] = cited from earlier work
[5] = in lung fluid at ~pH 7.4, assumed deposition

resulting gallium concentration in lung fluid ([2]; assumed: 25 μL of pH 2 solution equilibrated to ~pH 7.4 in 20 mL lung fluid) [µM] | excess of concentration over equilibrium solubility at pH 7.4 ([2]; assumed: 25 μL of pH 2 solution in 20 mL lung fluid) [fold] | gallium likely to precipitate out of solution [2, 5] [%] | gallium remaining soluble [2, 5] [%] | times greater solubility than at pH 7.4 ([3]; pH 2 versus pH 7.4) | times greater solubility than at pH 7.4 ([3]; pH 10 versus pH 7.4) [times] | SMILES | total aqueous solubility of gallium [1] [µM] | solubility in water [4]
~12.5 | ~12.5 | 96 | 8 | ~10,000 times | ~500 | [Ga] [gallium] | ~1 | 
 |  |  |  |  |  | NC[C@H]1O[C@H](O[C@H]2[C@H](O)[C@@H](O[C@H]3O[C@H](CO)[C@@H](O)[C@H](N)[C@H]3O)[C@H](N)C[C@@H]2N)[C@H](N)C[C@@H]1O [tobramycin] |  | very soluble in water

Reference: US20200297722A1, “pH-Modulated Formulations for Pulmonary Delivery” (GRIFOLS, S.A., priority 2009, published 2020)
